Like-named read-outs stand apart in the source and are kept apart here.

What all share (assay): Anti-proliferative assay, cell-titre luminescent reagent, 72 h (GVK-BIO)
Holding throughout (type): cell-based

For experiment [1], the system named is MDA-MB-231 triple negative breast cancer cells. The method, boiled down:
(§1)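 Two dose schemes were used: 30, 3, 0.3, 0.03 μM, giving IC50 by linear regression of percent of control against log concentration; and 30, 10, 3, 1, 0.3, 0.1 μM, giving EC50 by nonlinear variable-slope regression after normalizing to vehicle. Cells had attached for 24 h beforehand.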

Another experiment has as its system SK-Mel-28 melanoma cells. The gist of the method:
as §1

The subject of experiment [2] is SK-N-SH neuroblastoma cells. The gist of the method:
as §1

Experiment [3] relates to DU145 prostate cancer cells. The gist of the method:
as §1

The test system of experiment [4] is CaCo2 colorectal cancer cells. The gist of the method:
as §1

For experiment [5], the system named is A549 non-small cell lung carcinoma cells. The following applies: read-out: IC50/μM Lung (NSLC) A549. The gist of the method: as §1
The subject of experiment [6] is PC3 prostate cancer cells. The method, boiled down: as §1
The mark [7] stands for this setting: Homo sapiens, MDA-MB-231, 72 h, 30, 10, 3, 1, 0.3 and 0.1 μM, nonlinear regression (Table 5).
Where [8] appears, read: Homo sapiens, SK-MEL-28, 72 h, 30, 10, 3, 1, 0.3 and 0.1 μM, nonlinear regression (Table 5).
Setting [9] is: Homo sapiens, SK-N-SH, 30, 10, 3, 1, 0.3 and 0.1 μM, nonlinear regression (Table 5).
Where [10] appears, read: Homo sapiens, DU-145, 72 h, 30, 10, 3, 1, 0.3 and 0.1 μM, nonlinear regression (Table 5).
The mark [11] stands for this setting: Homo sapiens, Caco-2, 72 h, 30, 10, 3, 1, 0.3 and 0.1 μM, nonlinear regression (Table 5).
The mark [12] stands for this setting: Homo sapiens, A549, 72 h, 30, 10, 3, 1, 0.3 and 0.1 μM, nonlinear regression (Table 5).
The mark [13] stands for this setting: 30, 10, 3, 1, 0.3 and 0.1 μM, nonlinear regression (Table 5).
[14] abbreviates: Homo sapiens, MDA-MB-231, 72 h, 30, 3, 0.3 and 0.03 μM, linear regression (Tables 2-4).
Setting [15] is: Homo sapiens, SK-MEL-28, 72 h, 30, 3, 0.3 and 0.03 μM, linear regression (Tables 2-4).
The mark [16] stands for this setting: Homo sapiens, SK-N-SH, 30, 3, 0.3 and 0.03 μM, linear regression (Tables 2-4).
Where [17] appears, read: Homo sapiens, DU-145, 72 h, 30, 3, 0.3 and 0.03 μM, linear regression (Tables 2-4).
Where [18] appears, read: Homo sapiens, Caco-2, 72 h, 30, 3, 0.3 and 0.03 μM, linear regression (Tables 2-4).
[19] abbreviates: Homo sapiens, A549, 72 h, 30, 3, 0.3 and 0.03 μM, linear regression (Tables 2-4).
[20] abbreviates: 30, 3, 0.3 and 0.03 μM, linear regression (Tables 2-4).

For `COc1cccc(NC(=O)c2ccc(Oc3ccc4c(ccn4CCCN(C)C)c3)cc2)c1` [Compound 4092, 4-((1-(3-(dimethylamino)propyl)-1H-indol-5-yl)oxy)-N-(3-methoxyphenyl)benzamide], the IC50 in experiment [1] (setting [7]) amounted to 22.6 µM; in the experiment on SK-Mel-28 melanoma cells (setting [8]), 13.3 µM; in experiment [2] (setting [9]) it was 13.8 µM; in experiment [3] (setting [10]) it was 16.7 µM; in experiment [4] (setting [11]), 17.1 µM; in experiment [5] (setting [12]), 8.3 µM. This molecule showed an IC50 in experiment [6] (setting [13]) of 38.3 µM.
In the case of `COc1ccc(NC(=O)c2ccc(Oc3ccc4c(c3)c(C)c(C)n4CCCN(C)C)cc2)cc1` [Compound 4094, 4-((1-(3-(dimethylamino)propyl)-2,3-dimethyl-1H-indol-5-yl)oxy)-N-(4-methoxyphenyl)benzamide], the IC50 in experiment [1] (setting [7]) stood at 1.7 µM; in the experiment with SK-Mel-28 melanoma cells (setting [8]) it was 3.8 µM; in experiment [2] (setting [9]), 1.8 µM; in experiment [3] (setting [10]) it was 2 µM; in experiment [4] (setting [11]), 4.2 µM; in experiment [5] (setting [12]), 2.7 µM. This molecule also came in with an IC50 in experiment [6] (setting [13]) of 1.5 µM.
For the molecule `Cc1c(C)n(CCCN(C)C)c2ccc(Oc3ccc(C(=O)Nc4ccc5c(c4)OCO5)cc3)cc12` [Compound 4095, N-(benzo[d][1,3]dioxol-5-yl)-4-((1-(3-(dimethylamino)propyl)-2,3-dimethyl-1H-indol-5-yl)oxy)benzamide], the IC50 in experiment [1] (setting [14]) came out at 1.6 µM; in the experiment on SK-Mel-28 melanoma cells (setting [15]) it was 2.3 µM; in experiment [2] (setting [16]), 1.5 µM; in experiment [3] (setting [17]), 1.2 µM; in experiment [4] (setting [18]), 2.3 µM; in experiment [5] (setting [19]), 1 µM. For the same molecule, the IC50 in experiment [6] (setting [20]) turned out to be 1.4 µM.
Turning to `Cc1c(C)n(CCCN(C)C)c2ccc(Oc3ccc(C(=O)Nc4cccc(F)c4)cc3)cc12` [Compound 4096, 4-((1-(3-(dimethylamino)propyl)-2,3-dimethyl-1H-indol-5-yl)oxy)-N-(3-fluorophenyl)benzamide], the IC50 in experiment [1] (setting [14]) worked out at 2.6 µM; in the experiment on SK-Mel-28 melanoma cells (setting [15]), 3.5 µM; in experiment [2] (setting [16]), 3.7 µM; in experiment [3] (setting [17]) it was 3.3 µM; in experiment [4] (setting [18]) it was 2.7 µM; in experiment [5] (setting [19]), 2.9 µM. Besides, the IC50 in experiment [6] (setting [20]) is 2.5 µM.
Take `COc1cccc(NC(=O)c2ccc(Oc3ccc4c(c3)c(C)c(C)n4CCCN(C)C)cc2)c1` [Compound 4097, 4-((1-(3-(dimethylamino)propyl)-2,3-dimethyl-1H-indol-5-yl)oxy)-N-(3-methoxyphenyl)benzamide]: the IC50 is 2.5 µM in experiment [1] (setting [14]); 3.6 µM with SK-Mel-28 melanoma cells (setting [15]); 2.9 µM in experiment [2] (setting [16]); 3.5 µM in experiment [3] (setting [17]); 3.5 µM in experiment [4] (setting [18]); 3 µM in experiment [5] (setting [19]). In addition, the IC50 in experiment [6] (setting [20]) was determined as 4.9 µM.
Take `Cc1c(C)n(CCCN(C)C)c2ccc(Oc3ccc(C(=O)Nc4ccccc4)cc3)cc12` [Compound 4098, 4-((1-(3-(dimethylamino)propyl)-2,3-dimethyl-1H-indol-5-yl)oxy)-N-phenylbenzamide]: the IC50 worked out at 3.7 µM in experiment [1] (setting [14]); 3.8 µM with SK-Mel-28 melanoma cells (setting [15]); 3.4 µM in experiment [2] (setting [16]); 3.4 µM in experiment [3] (setting [17]); 4 µM in experiment [4] (setting [18]); 2.9 µM in experiment [5] (setting [19]). The molecule also yielded an IC50 in experiment [6] (setting [20]) of 3.3 µM.
In the case of `CN(C)CCCn1ccc2cc(Nc3cccc(C(=O)Nc4ccc(F)cc4)c3)ccc21` [Compound 4099, 3-((1-(3-(dimethylamino)propyl)-1H-indol-5-yl)amino)-N-(4-fluorophenyl)benzamide], the IC50 in experiment [1] (setting [20]) was 3.4 µM; in the experiment with SK-Mel-28 melanoma cells (setting [20]), 3.7 µM; in experiment [2] (setting [20]), 3.9 µM; in experiment [3] (setting [20]), 5.5 µM; in experiment [4] (setting [20]), above 30 µM; in experiment [5] (setting [20]), 4.1 µM. In experiment [6] (setting [20]), this molecule yielded an IC50 of 4.9 µM.
In the case of `COc1ccc(NC(=O)c2ccc(Nc3ccc4c(ccn4CCCN(C)C)c3)cc2)cc1` [Compound 4100, 4-((1-(3-(dimethylamino)propyl)-1H-indol-5-yl)amino)-N-(4-methoxyphenyl)benzamide], the IC50 is 5.2 µM in experiment [1] (setting [14]); 2.5 µM with SK-Mel-28 melanoma cells (setting [15]); 3.6 µM in experiment [2] (setting [16]); above 30 µM in experiment [3] (setting [17]); above 30 µM in experiment [4] (setting [18]); 4.5 µM in experiment [5] (setting [19]). For the same molecule, in experiment [6] (setting [20]), the IC50 is above 30 µM.
Turning to `CN(C)CCCn1ccc2cc(Nc3ccc(C(=O)Nc4ccc5c(c4)OCO5)cc3)ccc21` [Compound 4101, N-(benzo[d][1,3]dioxol-5-yl)-4-((1-(3-(dimethylamino)propyl)-1H-indol-5-yl)amino)benzamide], the IC50 in experiment [1] (setting [14]) was 3.9 µM; with SK-Mel-28 melanoma cells (setting [15]), 3.3 µM; in experiment [2] (setting [16]) it was 3.4 µM; in experiment [3] (setting [17]), 5.2 µM; in experiment [4] (setting [18]) it was above 30 µM; in experiment [5] (setting [19]), 4 µM. Besides, in experiment [6] (setting [20]), the IC50 is 7.8 µM.
In the case of `CN(C)CCCn1ccc2cc(Nc3ccc(C(=O)Nc4cccc(F)c4)cc3)ccc21` [Compound 4102, 4-((1-(3-(dimethylamino)propyl)-1H-indol-5-yl)amino)-N-(3-fluorophenyl)benzamide], the IC50 in experiment [1] (setting [14]) is 3.6 µM; with SK-Mel-28 melanoma cells (setting [15]), 3.5 µM; in experiment [2] (setting [16]), 3.5 µM; in experiment [3] (setting [17]), 6 µM; in experiment [4] (setting [18]), above 30 µM; in experiment [5] (setting [19]), 4 µM. The IC50 in experiment [6] (setting [20]) was found to be 5.5 µM.
As to `COc1cccc(NC(=O)c2ccc(Nc3ccc4c(ccn4CCCN(C)C)c3)cc2)c1` [Compound 4103, 4-((1-(3-(dimethylamino)propyl)-1H-indol-5-yl)amino)-N-(3-methoxyphenyl)benzamide], the IC50 in experiment [1] (setting [14]) came to 2.7 µM; in the experiment on SK-Mel-28 melanoma cells (setting [15]) it was 5.4 µM; in experiment [2] (setting [16]), 2.9 µM; in experiment [3] (setting [17]) it was 3.7 µM; in experiment [4] (setting [18]), 5 µM; in experiment [5] (setting [19]) it was 3 µM. This molecule also came in with an IC50 in experiment [6] (setting [20]) of 5.4 µM.
As to `Cc1c(C)n(CCCN(C)C)c2ccc(Nc3ccc(C(=O)Nc4ccc(F)cc4)cc3)cc12` [Compound 4104, 4-((1-(3-(dimethylamino)propyl)-2,3-dimethyl-1H-indol-5-yl)amino)-N-(4-fluorophenyl)benzamide], the IC50 came to 4.2 µM in experiment [1] (setting [14]); 3.6 µM in the experiment on SK-Mel-28 melanoma cells (setting [15]); 3.4 µM in experiment [2] (setting [16]); 4.1 µM in experiment [3] (setting [17]); 3.2 µM in experiment [4] (setting [18]); 4 µM in experiment [5] (setting [19]). Further, in experiment [6] (setting [20]), the IC50 stood at 4.1 µM.
Consider `COc1ccc(NC(=O)c2ccc(Nc3ccc4c(c3)c(C)c(C)n4CCCN(C)C)cc2)cc1` [Compound 4105, 4-((1-(3-(dimethylamino)propyl)-2,3-dimethyl-1H-indol-5-yl)amino)-N-(4-methoxyphenyl)benzamide], for which the IC50 in experiment [1] (setting [14]) was 2.7 µM; in the experiment with SK-Mel-28 melanoma cells (setting [15]), 2.6 µM; in experiment [2] (setting [16]), 3.4 µM; in experiment [3] (setting [17]), 3.6 µM; in experiment [4] (setting [18]) it was 2.6 µM; in experiment [5] (setting [19]), 3.6 µM. Moreover, in experiment [6] (setting [20]), the IC50 was determined as 3.7 µM.
For the molecule `Cc1c(C)n(CCCN(C)C)c2ccc(Nc3ccc(C(=O)Nc4ccc5c(c4)OCO5)cc3)cc12` [Compound 4106, N-(benzo[d][1,3]dioxol-5-yl)-4-((1-(3-(dimethylamino)propyl)-2,3-dimethyl-1H-indol-5-yl)amino)benzamide], the IC50 in experiment [1] (setting [14]) is 1.9 µM; with SK-Mel-28 melanoma cells (setting [15]), 2.6 µM; in experiment [2] (setting [16]), 1.8 µM; in experiment [3] (setting [17]), 3.1 µM; in experiment [4] (setting [18]), 2.8 µM; in experiment [5] (setting [19]), 2.4 µM. Besides, in experiment [6] (setting [20]), the IC50 worked out at 3.6 µM.
